Results as given in patent publication US12667572B2, “Tricyclic compounds useful in the treatment of cancer, autoimmune and inflammatory disorders” (SCHRÖDINGER, INC., priority 2021, dated 2026).

Legend:
[1] = molecular target: T1, full-length MALT1 protein His-MALT1(1-824) (Homo sapiens, UniProt Q9UDY8); assay: MALT1 protease assay, Assay 2 (1 nM MALT1, Ac-LRSR-AMC substrate); format: biochemical; conditions: 1 nM MALT1, 50 μM Ac-LRSR-AMC, 2 h pre-incubation, 8 hr incubation at RT
T1 construct: full-length MALT1 protein His-MALT1(1-824); His (N); made in house; host or cells: baculovirus-infected insect cells
T1 sequence (Q9UDY8 1-824): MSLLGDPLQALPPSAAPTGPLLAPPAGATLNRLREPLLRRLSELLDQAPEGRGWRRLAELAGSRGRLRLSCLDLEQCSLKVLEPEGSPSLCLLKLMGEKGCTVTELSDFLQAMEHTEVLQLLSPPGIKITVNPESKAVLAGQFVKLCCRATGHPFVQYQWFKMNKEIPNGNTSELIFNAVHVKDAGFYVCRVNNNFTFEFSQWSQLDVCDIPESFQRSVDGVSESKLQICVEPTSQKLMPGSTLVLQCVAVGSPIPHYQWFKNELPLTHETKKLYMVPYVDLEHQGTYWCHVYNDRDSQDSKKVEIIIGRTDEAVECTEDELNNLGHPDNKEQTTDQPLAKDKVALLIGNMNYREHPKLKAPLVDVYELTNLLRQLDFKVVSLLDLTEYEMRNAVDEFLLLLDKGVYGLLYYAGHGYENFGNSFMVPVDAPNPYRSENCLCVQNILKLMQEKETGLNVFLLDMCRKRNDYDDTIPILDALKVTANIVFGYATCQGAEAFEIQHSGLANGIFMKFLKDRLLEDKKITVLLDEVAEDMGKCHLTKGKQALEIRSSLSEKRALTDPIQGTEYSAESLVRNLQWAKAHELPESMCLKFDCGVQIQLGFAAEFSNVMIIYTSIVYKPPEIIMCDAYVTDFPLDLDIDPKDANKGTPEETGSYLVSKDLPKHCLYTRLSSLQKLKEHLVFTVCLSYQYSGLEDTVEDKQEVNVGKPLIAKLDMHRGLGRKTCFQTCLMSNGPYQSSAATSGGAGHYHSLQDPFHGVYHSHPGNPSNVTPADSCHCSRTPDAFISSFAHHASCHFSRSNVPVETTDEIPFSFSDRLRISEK
Summary of the method: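 Compounds (0.1% DMSO final) sat 2 h at RT with insect-cell-expressed His-MALT1(1-824), in 50 mM Tris pH 7.5, 600 mM sodium citrate, 1 mM DTT, 1 mM EDTA, 0.05% BSA. Cleavage of 50 μM Ac-LRSR-AMC (Km ~100 μM) ran 8 h at RT, read as AMC fluorescence. IC50 and Hill coefficient fitted to % remaining activity.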

[2] = tested on: IL10 secretion in OCI-LY10 cells; assay: Human IL10 secretion assay, Assay 2 (MSD); format: cell-based; conditions: Homo sapiens, 24 h incubation, Meso Scale Discovery, read-out: IL-10 Secretion IC50 [nM] Assay 2
Description: IL10 is one of the cytokines that are regulated via activation of NF-kB signaling. For example, in ABC-DLBCL cell lines, the activated NF-kB signaling leads to increased IL10 secretion. Inhibition of NF-kB signaling has been shown leading to decreased IL10 secretion.
Assay 2: OCI-LY10 cells were seeded in IMEM supplemented with 20% fetal bovine serum at 4.8×10^5 cells per 160 μL per well in 96-well V-bottom cell culture plates (corning, 3894), treated with 120 nL of 3-fold serial compound dilutions, starting at 4 mM. The final vehicle concentration was 0.075% DMSO in all wells. After a 24 h incubation, human IL-10 precoated plates (Meso Scale Discovery) were washed 3 times with PBST, and 50 μL culture medium was aspirated into the MSD plate and incubated at 4° C. overnight. The supernatant was then discarded, and the wells were washed 3 times with PB ST. SULFO-TAG Anti-human IL-10 Antibody (50×) was diluted 50-fold according to the Meso Scale Protocol, then 25 μL of SULFO-TAG Anti-human IL-10 Antibody (1×) was added. After 2 h of incubation at RT, the supernatant was discarded, and the well was washed 3 times with PBST. 2×read buffer was added and the signal was read on an MSD Sector S600. The effect of a particular compound on IL10 secretion is shown relative to the effect of DMSO; set as 100%. IC50 values (nM) were determined using 4-parametric curve-fitting.

[3] = molecular target: T1, full-length MALT1 protein His-MALT1(1-824); assay: MALT1 protease assay, Assay 1 (2 nM MALT1, Ac-LRSR-AMC substrate); format: biochemical; conditions: 2 nM MALT1, 50 μM Ac-LRSR-AMC, 2 h pre-incubation, 8 hr incubation at RT
Description: MALT1 protease activity was assessed in an in vitro assay using a tetrapeptide as substrate and full-length MALT1 protein His-MALT1(1-824) purified from baculovirus-infected insect cells. The tetrapeptide substrate is Ac-LRSR-AMC (SM Biochemicals) with Km measured at around 100 μM.
The final assay buffer includes 1 nM (Assay 2) or 2 nM (Assay 1) of MALT1 full-length protein, 50 μM Ac-LRSR-AMC substrate, 50 mM Tris pH 7.5, 600 mM Sodium Citrate, 1 mM DTT, 1 mM EDTA, and 0.05% BSA in 384-well plate format using black microtiter square well plates (Optiplate 384-F, Perkin Elmer).
Test compounds were dissolved in 100% DMSO at stock of 10 mM, with final DMSO concentration 0.1%. Test compounds were pre-incubated with MALT1 protein for 2 h at room temperature. Substrate was added after the pre-incubation and fluorescence signal was measured using Envision at excitation 355 nm and emission 460 nm after 8 hr incubation at RT. Increase in the assay signal was linear over this period and proportional with increase in the enzyme content.
The fluorescence units were transformed to percentage of remaining activity by using the high control (HC, median of fluorescence signal from wells containing MALT1 protein, substrate, and DMSO) and low control (LC, median of fluorescence signal from wells with substrate only) with the formula below: […]
IC50 and Hill coefficients were obtained using Graph Pad Prism (Graph Pad software, Inc, USA) with non-linear regression analysis.

SMILES | IC50 [1] [nM] | IC50 [2] [nM] | IC50 [3] [nM]
O=C(Nc1cnc(-n2nccn2)c(Cl)c1)C1CC2(CC2)c2c1cnc1cc(F)nn21 (single isomer, unassigned) [Example 95, N-(5-chloro-6-(2H-1,2,3-triazol-2-yl)pyridin-3-yl)-2-fluoro-6,7-dihydrospiro[cyclopenta[e]pyrazolo[1,5-a]pyrimidine-8,1′-cyclopropane]-6-carboxamide] | 10 to 100 | 100 to 1000 | 
O=C(Nc1cnc(-n2nccn2)c(Cl)c1)C1CC2(CC2)c2c1cnc1cc(Cl)nn21 (single isomer, unassigned) [Example 97, 2-chloro-N-(5-chloro-6-(2H-1,2,3-triazol-2-yl)pyridin-3-yl)-6,7-dihydrospiro[cyclopenta[e]pyrazolo[1,5-a]pyrimidine-8,1′-cyclopropane]-6-carboxamide] | 10 to 100 | 100 to 1000 | 
CC1(C)CC(C(=O)Nc2cnc(OC3CC3)c(Cl)c2)c2cnc3cc(Cl)nn3c21 (single isomer, unassigned) [Example 75, 2-chloro-N-(5-chloro-6-cyclopropoxypyridin-3-yl)-8,8-dimethyl-7,8-dihydro-6H-cyclopenta[e]pyrazolo[1,5-a]pyrimidine-6-carboxamide] | 10 to 100 | 100 to 1000 | 
Cc1cc2cc(F)c3c(n2n1)C(C)(C)CC3C(=O)Nc1cnc(-n2nccn2)c(Cl)c1 (single isomer, unassigned) [Example 157, N-(5-chloro-6-(2H-1,2,3-triazol-2-yl)pyridin-3-yl)-5-fluoro-2,8,8-trimethyl-7,8-dihydro-6H-cyclopenta[e]pyrazolo[1,5-a]pyridine-6-carboxamide] | 10 to 100 | ≥ 1000 | 
C[C@@]1(C(F)(F)F)C[C@@H](C(=O)Nc2cnc(-n3nccn3)c(Cl)c2)c2cnc3cc(Cl)nn3c21 (single isomer, unassigned) [Example 39, 2-chloro-N-(5-chloro-6-(2H-1,2,3-triazol-2-yl)pyridin-3-yl)-8-methyl-8-(trifluoromethyl)-7,8-dihydro-6H-cyclopenta[e]pyrazolo[1,5-a]pyrimidine-6-carboxamide] |  |  | 10 to 100
CC1(C)CC[C@@H](C(=O)Nc2cnc(-n3nccn3)c(Cl)c2)c2cnc3cc(Cl)nn3c21 (single isomer, unassigned) [Example 8, 2-chloro-N-(5-chloro-6-(2H-1,2,3-triazol-2-yl)pyridin-3-yl)-9,9-dimethyl-6,7,8,9-tetrahydropyrazolo[1,5-a]quinazoline-6-carboxamide] |  |  | ≥ 1000

Second part, the compound after the results:

IC50 [1] [nM] | IC50 [2] [nM] | IC50 [3] [nM] | SMILES
< 10 | 10 to 100 |  | CN(C(=O)c1ncc(NC(=O)[C@H]2CC(C)(C)c3c2cnc2cc(Cl)nn32)cc1C(F)F)C1CC1 (single isomer, unassigned) [Example 73, 2-chloro-N-(6-(cyclopropyl(methyl)carbamoyl)-5-(difluoromethyl)pyridin-3-yl)-8,8-dimethyl-7,8-dihydro-6H-cyclopenta[e]pyrazolo[1,5-a]pyrimidine-6-carboxamide]
< 10 | 10 to 100 |  | CC1(C)C[C@H](C(=O)Nc2cnc(OC(F)F)c(Cl)c2)c2cnc3cc(F)nn3c21 (single isomer, unassigned) [Example 77, N-(5-chloro-6-(difluoromethoxy)pyridin-3-yl)-2-fluoro-8,8-dimethyl-7,8-dihydro-6H-cyclopenta[e]pyrazolo[1,5-a]pyrimidine-6-carboxamide]
< 10 | 10 to 100 |  | C[C@@H](O)c1cnn(-c2ncc(NC(=O)[C@H]3CC4(CCC4)c4c3cnc3cc(Cl)nn43)cc2Cl)n1 (single isomer, unassigned) [Example 160]
< 10 | 10 to 100 |  | CC1(C)CC(C(=O)Nc2cnc(-n3ncc(C4COC4)n3)c(Cl)c2)c2cnc3cc(Cl)nn3c21 (single isomer, unassigned) [Example 111, 2-chloro-N-(5-chloro-6-(4-(oxetan-3-yl)-2H-1,2,3-triazol-2-yl)pyridin-3-yl)-8,8-dimethyl-7,8-dihydro-6H-cyclopenta[e]pyrazolo[1,5-a]pyrimidine-6-carboxamide]
